Test results published in publication PMC4639722, “Dihydrotanshinone-I interferes with the RNA-binding activity of HuR affecting its post-transcriptional function” (Scientific Reports, 2015).

How the values were obtained:
HuR = target: T1, HuR (Homo sapiens, UniProt Q15717); experiment: REMSA of recombinant HuR with Cy3 AU-rich RNA probe at equilibrium; assay type: biochemical
T1 construct: gene ELAVL1; recombinant HuR (HuR-cMyc-His)

HuD = target: T2, HuD (Homo sapiens, UniProt P26378); experiment: REMSA of purified HuD with Cy3 AU-rich RNA probe; assay type: biochemical
T2 construct: gene ELAVL4; HuD-His, expressed in HEK293T cells and purified

HuR M2_M3 = HuR M2_M3 (human, UniProt Q15717 117-326); experiment: equilibrium binding, assay not stated (REMSA or AlphaScreen); no DHTS; limited effect of DHTS; REMSA/AlphaScreen buffers as in ref 23 (not given); pull-down lysates: 20 mM HEPES pH 7.5, 50 mM KCl, 0.5 ug BSA, 0.25% glycerol, 4 C; conditions: protein: recombinant; tags: His; label: 5'-Cy3; single strand
HuR M1_M2 = HuR M1_M2 (human, UniProt Q15717 1-197); experiment: equilibrium binding, assay not stated (REMSA or AlphaScreen); no DHTS; DHTS inhibits, Ki 4.12 nM; REMSA/AlphaScreen buffers as in ref 23 (not given); pull-down lysates: 20 mM HEPES pH 7.5, 50 mM KCl, 0.5 ug BSA, 0.25% glycerol, 4 C; conditions: protein: recombinant; tags: His; label: 5'-Cy3; single strand
HuR M1_M2, sequence (Q15717 1-197): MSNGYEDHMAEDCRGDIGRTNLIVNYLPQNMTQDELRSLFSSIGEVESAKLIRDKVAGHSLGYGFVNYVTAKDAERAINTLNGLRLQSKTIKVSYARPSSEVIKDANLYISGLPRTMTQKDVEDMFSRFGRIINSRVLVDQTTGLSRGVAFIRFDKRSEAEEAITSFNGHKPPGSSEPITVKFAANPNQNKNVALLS

T1 sequence (Q15717 2-326): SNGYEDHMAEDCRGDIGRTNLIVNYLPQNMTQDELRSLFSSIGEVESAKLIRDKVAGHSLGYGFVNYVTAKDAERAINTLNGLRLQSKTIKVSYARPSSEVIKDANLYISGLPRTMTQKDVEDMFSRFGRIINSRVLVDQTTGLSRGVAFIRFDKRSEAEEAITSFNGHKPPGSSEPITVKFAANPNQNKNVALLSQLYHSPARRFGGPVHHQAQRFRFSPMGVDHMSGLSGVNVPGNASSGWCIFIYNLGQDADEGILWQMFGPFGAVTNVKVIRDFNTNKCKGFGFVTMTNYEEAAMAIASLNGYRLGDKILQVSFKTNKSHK
HuR M2_M3, sequence (Q15717 117-326): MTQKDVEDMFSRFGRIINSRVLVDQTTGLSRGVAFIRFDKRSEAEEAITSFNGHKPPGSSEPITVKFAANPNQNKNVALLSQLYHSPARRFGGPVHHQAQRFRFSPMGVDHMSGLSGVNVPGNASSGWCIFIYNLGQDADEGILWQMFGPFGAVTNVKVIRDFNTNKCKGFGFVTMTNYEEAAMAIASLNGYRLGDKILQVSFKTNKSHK
T2 sequence (P26378 whole entry): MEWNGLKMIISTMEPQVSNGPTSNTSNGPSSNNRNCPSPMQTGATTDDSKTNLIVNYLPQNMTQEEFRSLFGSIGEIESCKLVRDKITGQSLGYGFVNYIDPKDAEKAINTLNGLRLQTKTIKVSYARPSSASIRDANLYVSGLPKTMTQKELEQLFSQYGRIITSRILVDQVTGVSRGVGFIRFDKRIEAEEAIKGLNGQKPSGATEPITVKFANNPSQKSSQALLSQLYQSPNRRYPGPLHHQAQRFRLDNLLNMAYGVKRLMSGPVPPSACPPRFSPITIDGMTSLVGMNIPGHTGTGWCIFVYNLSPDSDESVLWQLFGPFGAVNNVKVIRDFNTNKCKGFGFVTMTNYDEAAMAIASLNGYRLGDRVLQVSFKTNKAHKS

Cc1coc2c1C(=O)C(=O)c1c-2ccc2c(C)cccc12 [TanI, Tanshinone I]
REMSA of recombinant HuR with Cy3 AU-rich RNA probe at equilibrium (HuR): the potency of tanshinone I was comparable to DHTS at equilibrium (Fig. 2B)

C[C@H]1COC2=C1C(=O)C(=O)c1c2ccc2c1CCCC2(C)C [Cryptotanshinone]
REMSA of recombinant HuR with Cy3 AU-rich RNA probe at equilibrium (HuR): while cryptotanshinone and tanshinone IIA were less potent (micromolar range)

Cc1cccc2c3c(ccc12)C1=C(C(=O)C3=O)[C@@H](C)CO1 [15,16-dihydrotanshinone-I]
REMSA of purified HuD with Cy3 AU-rich RNA probe (HuD): only HuD-RNA complex formation was affected by DHTS at the reference doses

Cc1coc2c1C(=O)C(=O)c1c-2ccc2c1CCCC2(C)C [TanII, Tanshinone IIA]
REMSA of recombinant HuR with Cy3 AU-rich RNA probe at equilibrium (HuR): while cryptotanshinone and tanshinone IIA were less potent (micromolar range)

AUUAUUUAUUAUUUAUUUAUUAUUUA (ssRNA) [Cy3 TNF ARE RNA probe]
Kd (HuR M2_M3): ~24 nM
Kd (HuR M1_M2): 2.66 nM
